Measurements: patent US11814352B2, “Salts formed by 2-(1-acyloxy-n-pentyl) benzoic acid and basic amino acid or aminoguanidine, and preparation method and application thereof” (JIANGSU KANION PHARMACEUTICAL CO., LTD., priority 2018, dated 2023)
Where two headings read alike, the source gives them in different places. Marks after values point to notes of the source that are not given here.

What was measured:
[1] = test system: ADP induced platelet aggregation; experiment: In vitro anti-platelet aggregation, ADP induced (turbidimetry, PRP); type: cell-based, rabbits
Procedure: (§1) The animals were used for experiments after 1 week.
(§2) The common carotid artery was separated, and a polyethylene tube was inserted into the common carotid artery to collect blood. […] The upper beige suspension was pipetted to obtain the platelet-rich plasma (PRP). […] The PRP was adjusted with the PPP to make the platelet count at 1×10^8/mL.
(§3) 260 μL of platelet-rich plasma (PRP) was added into a turbidimetric tube. Then 10 μL of test compounds with different concentrations, positive control drugs or normal saline were separately added, and the plasma was incubated at 37° C. for 5 min. Then 30 μL of inducers were added in sequence. The final concentration of an inducer ADP is 10 μM, and the final concentration of an inducer AA is 1 mM. […] Inhibition rate of platelet aggregation (IRPA)=(platelet aggregation rate of the control group−platelet aggregation rate of the experimental group)/platelet aggregation rate of the control group×100%.

[2] = test system: AA induced platelet aggregation; experiment: In vitro anti-platelet aggregation, AA induced (turbidimetry, PRP); type: cell-based, rabbits
Procedure: as §1, §2, §3

[3] = test system: arteriovenous bypass thrombosis in rats; experiment: Effect on arteriovenous bypass thrombosis in rats; type: in vivo, SD rats; details: 10 mg/kg/day tail vein 7 days; for Dry weight of thrombus / Wet weight of thrombus: 2 h after last dose; for inhibition at 10 mg/kg/day: Rattus norvegicus, 168 h
Procedure: Male SD rats, weighing 250-280 g, purchased from Beijing Vital River Laboratory Animal Technology Co., Ltd., raised in an SPF breeding environment with indoor temperature controlled at 23±2° C., and allowed to freely eat and drink. The total number of the animals is 64.
Model group: injected with the same volume of normal saline (containing 1% DMSO) through the tail vein, and administered continuously for 7 days. The test was started 2 h after the last dose (n=8).
The dose of all drugs was 10 mg/kg/day. The drugs were formulated into normal saline solutions containing 1% DMSO, and injected through the tail vein for 7 consecutive days. The test was started 2 hours after the last dose (n=8).
The rats were intraperitoneally injected with a 3% pentobarbital sodium solution (30 mg/kg). After anesthesia, the rats were immobilized in the supine position, and a median cervical incision was made to separate the right common carotid artery and left external jugular vein. A 6 cm long suture was put in the middle of a polyethylene tube (the suture needs to be weighed before being put in the tube), and the polyethylene tube was filled with heparin saline (50 U/mL). The polyethylene tube was inserted into the separated blood vessels to make the artery and vein form a loop. After 15 min of circulation of the blood flow, the suture was taken out, and the suture with thrombus was collected and weighed immediately. Then, after the suture was dried at room temperature for 24 h, the dry weight was determined. The total weight minus the weight of the suture was the wet weight of the thrombus, and the dry weight minus the weight of the suture was the dry weight of the thrombus.

MCAO rats = experiment: Cerebral infarction, cerebral edema and nerve function of rats with focal cerebral ischemia (MCAO); type: in vivo, SD rats; details: for inhibition at 10 mg/kg/day: Rattus norvegicus
Procedure: The total number of the animals was 88.
Sham operation group: equal volume of normal saline (containing 1% DMSO) (iv. 3 days), TTC, cerebral edema and neurological function score (n=8); […]
The middle cerebral arteries of the rats were blocked by a suture-occluded method, and reperfused after 2 h. […] All drugs were formulated into normal saline solutions containing 1% DMSO for administration, and the duration of administration was controlled at approximately 1 min. […] 2 h after the last administration, the neurological defect scores were firstly obtained, and then the rats of each group were sacrificed. The whole brains were taken out and weighed (wet weight), TTC stained, and dried to determine the effects of the compounds on cerebral infarction and cerebral edema.
2 h after the last administration, the neurological defects of the animals were graded and scored by the Longa's method.
After the neurobehavioral examination was completed, four coronal incisions were made on the whole brains of the rats on the optic chiasma and 2 mm anteroposterior positions of the optic chiasma. After the whole brains were cut into five slices, the brain slices were quickly placed in 5 ml of phosphate buffer solution containing 2% TTC, and incubated at 37° C. in the dark. In the incubation process, the brain slices were turned once every 5 min. After 10 min of incubation, the brain slices were taken out and pictures were taken with a digital camera (Olympus C-4000, Japan).
The calculation formula of brain water content is as follows: Water content of brain tissue (%)=(wet weight of brain tissue−dry weight of brain tissue)/wet weight of brain tissue×100%; Cerebral edema rate (%)=water content of brain tissue of each group (%)−water content of brain tissue of sham operation group (%)/water content of brain tissue of sham operation group (%)×100%; Inhibition rate of cerebral edema (%)=(rate of cerebral edema of model group (%)−rate of cerebral edema of administration group (%))/rate of cerebral edema of model group (%)×100%.

[4] = read-out: IC50 ADP (10 μM), rabbit PRP, inducer ADP 10 μM, 37° C.
[5] = read-out: IC50 AA (1 mM), rabbit PRP, inducer AA 1 mM, 37° C.
[6] = vs model group, read-out: Inhibition rate (dry weight of thrombus)
[7] = vs model group, read-out: Inhibition rate (wet weight of thrombus)
[8] = MCAO rats, 10 mg/kg/day iv 3 days (combinations equimolar), first dose 2 h after reperfusion
[9] = MCAO rats, 10 mg/kg/day iv 3 days (combinations equimolar), first dose 2 h after reperfusion, read-out: Inhibition rate of cerebral edema
[10] = MCAO rats, 10 mg/kg/day iv 3 days (combinations equimolar), first dose 2 h after reperfusion, read-out: Inhibition rate of infarct volume
[11] = iv 2 h after the beginning of reperfusion, 5 mg/kg
[12] = iv 2 h after the beginning of reperfusion, 10 mg/kg
[13] = iv 2 h after the beginning of reperfusion, 20 mg/kg
[14] = iv at the beginning of reperfusion, 5 mg/kg
[15] = iv at the beginning of reperfusion, 10 mg/kg
[16] = iv at the beginning of reperfusion, 20 mg/kg
[17] = Oryctolagus cuniculus, Platelet, read-out: IC50 ADP (10 μM), rabbit PRP, inducer ADP 10 μM, 37° C.
[18] = Oryctolagus cuniculus, Platelet, read-out: IC50 AA (1 mM), rabbit PRP, inducer AA 1 mM, 37° C.

CCCC[C@@H](OC(C)=O)c1ccccc1C(=O)O [I1r, L-Arginine (R)-2-(1-Acetoxy-n-Pentyl) Benzoate]
IC50 [1, 4]: 730 ± 70 µM | IC50 [2, 5]: 180 ± 30 µM | Dry weight of thrombus [3]: 8.51 ± 0.18 | inhibition at 10 mg/kg/day [3, 6]: 15.2% | inhibition at 10 mg/kg/day [3, 7]: 18.4% | Cerebral edema (MCAO rats; [8]): 10.72 ± 4.19% | Infarct volume (MCAO rats; [8]): 20.14 ± 2.95% | inhibition at 10 mg/kg/day (MCAO rats; [9]): 33.2% | inhibition at 10 mg/kg/day (MCAO rats; [10]): 51.9%

CCCCC(O)c1ccccc1C(=O)O.N=C(N)NCCC[C@H](N)C(=O)O (racemic) [AHPB, L-Arginine (R/S)-2-(1-Hydroxy-n-Pentyl) Benzoate]
IC50 [1, 4]: 980 ± 210 µM | IC50 [2, 5]: 340 ± 40 µM | Cerebral edema (MCAO rats; [11]): 6.50 ± 1.86% | Infarct volume (MCAO rats; [11]): 37.54 ± 6.94% | Inhibition rate of cerebral edema (MCAO rats; [11]): 31.12% | Inhibition rate of infarct volume (MCAO rats; [11]): 24.34% | Cerebral edema (MCAO rats; [12]): 3.03 ± 2.87% | Infarct volume (MCAO rats; [12]): 25.70 ± 4.75% | Inhibition rate of cerebral edema (MCAO rats; [12]): 67.94% | Inhibition rate of infarct volume (MCAO rats; [12]): 48.19% | Cerebral edema (MCAO rats; [13]): 1.64 ± 3.36% | Infarct volume (MCAO rats; [13]): 23.56 ± 5.29% | Inhibition rate of cerebral edema (MCAO rats; [13]): 82.57% | Inhibition rate of infarct volume (MCAO rats; [13]): 52.51% | Cerebral edema (MCAO rats; [14]): 5.94 ± 2.45% | Infarct volume (MCAO rats; [14]): 29.98 ± 4.99% | Inhibition rate of cerebral edema (MCAO rats; [14]): 38.82% | Inhibition rate of infarct volume (MCAO rats; [14]): 39.06% | Cerebral edema (MCAO rats; [15]): 2.01 ± 2.91% | Infarct volume (MCAO rats; [15]): 19.83 ± 3.95% | Inhibition rate of cerebral edema (MCAO rats; [15]): 79.34% | Inhibition rate of infarct volume (MCAO rats; [15]): 59.69% | Cerebral edema (MCAO rats; [16]): 2.08 ± 4.58% | Infarct volume (MCAO rats; [16]): 17.71 ± 4.65% | Inhibition rate of cerebral edema (MCAO rats; [16]): 78.57% | Inhibition rate of infarct volume (MCAO rats; [16]): 64.00% | Effects of improving cerebral infarction, cerebral edema and neurological function compared with NBP (5 mg/kg) (MCAO rats; low-dose 5 mg/kg iv, at reperfusion or 2 h after): no significant difference | Improving the neurological function compared with NBP (5 mg/kg) (MCAO rats; middle and high doses 10, 20 mg/kg iv): equivalent to NBP (5 mg/kg)

CCCC[C@@H](OC(C)=O)c1ccccc1C(=O)O.N=C(N)NN [I7r, Aminoguanidine (R)-2-(1-Acetoxy-n-Pentyl) Benzoate]
IC50 [1, 4]: 940 ± 50 µM | IC50 [2, 5]: 210 ± 10 µM

CCCCC(OC(=O)CCC)c1ccccc1C(=O)O (racemic) [I3, L-Arginine (R/S)-2-(1-N-Butyryloxy-n-Pentyl) Benzoate]
IC50 [1, 17]: 1260 ± 70 µM | IC50 [2, 18]: 520 ± 30 µM

CCCC[C@H]1OC(=O)c2ccccc21 [(R)-NBP, (R)-butylphthalide]
IC50 [1, 4]: 1600 ± 150 µM | IC50 [2, 5]: 660 ± 70 µM

CCCCC(OC(C)=O)c1ccccc1C(=O)O (racemic) [(R/S)-APB, (R/S)-2-(1-acetoxy-n-pentyl)benzoic acid]
IC50 [1, 4]: 810 ± 40 µM | IC50 [2, 5]: 470 ± 40 µM

CCCC[C@@H](OC(C)=O)c1ccccc1C(=O)O [(R)-APB, (R)-2-(1-acetoxy-n-pentyl)benzoic acid]
IC50 [1, 17]: 760 ± 70 µM | IC50 [2, 18]: 190 ± 20 µM

CC1=NN(c2ccccc2)C(=O)C1 [Edaravone]
Dry weight of thrombus [3]: 8.23 ± 0.53 | Wet weight of thrombus [3]: 24.95 ± 1.20 | inhibition at 10 mg/kg/day [3, 6]: 18.1% | inhibition at 10 mg/kg/day [3, 7]: 31.1% | Cerebral edema (MCAO rats; [8]): 4.49 ± 4.84% | Infarct volume (MCAO rats; [8]): 14.29 ± 2.58% | inhibition at 10 mg/kg/day (MCAO rats; [9]): 72% | inhibition at 10 mg/kg/day (MCAO rats; [10]): 65.8%

CCCCC(OC(C)=O)c1ccccc1C(=O)O (racemic) [I5, L-Lysine (R/S)-2-(1-Acetoxy-n-Pentyl) Benzoate]
IC50 [1, 17]: 1150 ± 80 µM | IC50 [2, 18]: 460 ± 30 µM

CCCC[C@H](OC(C)=O)c1ccccc1C(=O)O.N=C(N)NN [I7s, Aminoguanidine (S)-2-(1-Acetoxy-n-Pentyl) Benzoate]
IC50 [1, 4]: 680 ± 30 µM | IC50 [2, 5]: 120 ± 10 µM | Cerebral edema (MCAO rats; [8]): 12.34 ± 4.57% | Infarct volume (MCAO rats; [8]): 24.83 ± 2.02% | Inhibition rate of cerebral edema (MCAO rats; [8]): 23.07% | Inhibition rate of infarct volume (MCAO rats; [8]): 40.67%

CCCCC(OC(=O)CC)c1ccccc1C(=O)O (racemic) [I2, L-Arginine (R/S)-2-(1-Propionyloxy-n-Pentyl) Benzoate]
IC50 [1, 17]: 650 ± 40 µM | IC50 [2, 18]: 190 ± 20 µM

CCCCC(OC(C)=O)c1ccccc1C(=O)O.N[C@@H](Cc1c[nH]cn1)C(=O)O (racemic) [I6, L-Histidine (R/S)-2-(1-Acetoxy-n-Pentyl) Benzoate]
IC50 [1, 4]: 770 ± 50 µM | IC50 [2, 5]: 140 ± 10 µM

CCCCC(OC(C)=O)c1ccccc1C(=O)O.N=C(N)NN (racemic) [I7, Aminoguanidine (R/S)-2-(1-Acetoxy-n-Pentyl) Benzoate]
IC50 [1, 4]: 1180 ± 60 µM | IC50 [2, 5]: 280 ± 70 µM

CCCCC(OC(=O)c1ccccc1)c1ccccc1C(=O)O (racemic) [I4, L-Arginine (R/S)-2-(1-Benzoyloxy-n-Pentyl) Benzoate]
IC50 [1, 4]: 820 ± 50 µM | IC50 [2, 5]: 170 ± 70 µM

CCCCC(OC(C)=O)c1ccccc1C(=O)O.N=C(N)NCCC[C@H](N)C(=O)O (racemic) [I1, L-Arginine (R/S)-2-(1-Acetoxy-n-Pentyl) Benzoate]
IC50 [1, 4]: 740 ± 90 µM | IC50 [2, 5]: 180 ± 30 µM | Dry weight of thrombus [3]: 7.64 ± 0.40 | Wet weight of thrombus [3]: 25.81 ± 2.20**^ | Inhibition rate (dry weight of thrombus) ([3]; vs model group): 23.94% | Inhibition rate (wet weight of thrombus) ([3]; vs model group): 28.72% | Cerebral edema (MCAO rats; [8]): 4.97 ± 3.30% | Infarct volume (MCAO rats; [8]): 16.11 ± 2.74% | Inhibition rate of cerebral edema (MCAO rats; [8]): 69.00% | Inhibition rate of infarct volume (MCAO rats; [8]): 61.50%

N=C(N)NCCC[C@H](N)C(=O)O [L-arginine]
IC50 [1, 17]: 5860 ± 690 µM | IC50 [2, 18]: 5130 ± 650 µM
